Data taken from article PMC9230455 (Pharmaceuticals, 2022).

How the values were obtained:
[1] = system: impaired glucose tolerance (IGT) mice; assay: Oral glucose tolerance test in impaired glucose tolerance (IGT) mice; format: in vivo, mouse; set-up: AUC of Day 1, Blood glucose level (120 min): unit not given beside the values; conditions: for Blood Glucose Value of 30 min: 30 min after 2.5 g/kg glucose gavage; for Blood Glucose Value of 30 min / Blood Glucose Value of 60 min / Blood Glucose Value of 90 min / Blood Glucose Value of 120 min / Fasting Blood Glucose Level: M ± SD, n = 8; for Blood Glucose Value of 60 min: 60 min after 2.5 g/kg glucose gavage; for Blood Glucose Value of 90 min: 90 min after 2.5 g/kg glucose gavage; for Blood Glucose Value of 120 min: 120 min after 2.5 g/kg glucose gavage
Protocol: After in vitro experiments were conducted to investigate the DPP-4 inhibition ability and receptor affinity of GLP-1RAs, further in vivo experiments were conducted to compare the hypoglycemic effects of GLP-1RAs on impaired glucose tolerance (IGT) mice. The model of IGT mice was established by a one-week injection of streptozotocin, compared with the normal glucose tolerance (NGT) group, the increase in blood glucose in the IGT group after intragastric glucose administration was statistically significant, and the increase in blood glucose in each experimental group was similar after grouping (as shown in Table A2). Each group was fasted for 9 h before the last administration, fasting blood glucose (FBG) was measured one hour after administration, and then an oral glucose tolerance test (OGTT) was performed.
After fasting for 9 h, the OGTT was performed again the next day. The duration of GLP-1RAs was measured using the second day’s OGTT. […] The blood glucose level of the G1 group was lower than that of the vehicle group at each time point, and the difference was statistically significant. […] The blood sugar of IGT mice can be well controlled at a level equivalent to that of NGT mice, and the effect time of the drug was more than 24 h.
Male KM mice age 6–8 weeks with weight of 18–25 g were selected and injected with STZ at a dose of 40 mg/kg per mouse to establish mouse model of IGT. One week after the injection, OGTT was performed. Blood was collected from the tail tip of each mouse to measure the blood glucose concentration. Mice with blood glucose level increase greater than 200% after intragastric administration of glucose were selected. […] The NGT and vehicle groups were treated with normal saline, and the other groups were treated with the corresponding protein solution diluted to 20 µmol/L with normal saline. Each mouse was injected with 25 µL/10 g body weight. The FBG of each group was measured one hour after the last administration, and then 2.5 g/kg glucose solution was administered by gavage immediately, and blood glucose was measured at 30, 60, 90, and 120 min after gavage. The FBG was measured the same time the next day, and the glucose solution was administered by gavage again at 2.5 g/kg. Blood glucose was measured 30, 60, 90, and 120 min after gavage. The statistical software GraphPad Prism 8.0, was used to process the data. The blood glucose level at each time point was compared between the groups using two-way analysis of variance. p < 0.05 was considered statistically different.

[2] = target: dipeptidyl peptidase-4 (DPP-4) (UniProt P27487)
Chain of UniProt P27487 (P27487 whole entry): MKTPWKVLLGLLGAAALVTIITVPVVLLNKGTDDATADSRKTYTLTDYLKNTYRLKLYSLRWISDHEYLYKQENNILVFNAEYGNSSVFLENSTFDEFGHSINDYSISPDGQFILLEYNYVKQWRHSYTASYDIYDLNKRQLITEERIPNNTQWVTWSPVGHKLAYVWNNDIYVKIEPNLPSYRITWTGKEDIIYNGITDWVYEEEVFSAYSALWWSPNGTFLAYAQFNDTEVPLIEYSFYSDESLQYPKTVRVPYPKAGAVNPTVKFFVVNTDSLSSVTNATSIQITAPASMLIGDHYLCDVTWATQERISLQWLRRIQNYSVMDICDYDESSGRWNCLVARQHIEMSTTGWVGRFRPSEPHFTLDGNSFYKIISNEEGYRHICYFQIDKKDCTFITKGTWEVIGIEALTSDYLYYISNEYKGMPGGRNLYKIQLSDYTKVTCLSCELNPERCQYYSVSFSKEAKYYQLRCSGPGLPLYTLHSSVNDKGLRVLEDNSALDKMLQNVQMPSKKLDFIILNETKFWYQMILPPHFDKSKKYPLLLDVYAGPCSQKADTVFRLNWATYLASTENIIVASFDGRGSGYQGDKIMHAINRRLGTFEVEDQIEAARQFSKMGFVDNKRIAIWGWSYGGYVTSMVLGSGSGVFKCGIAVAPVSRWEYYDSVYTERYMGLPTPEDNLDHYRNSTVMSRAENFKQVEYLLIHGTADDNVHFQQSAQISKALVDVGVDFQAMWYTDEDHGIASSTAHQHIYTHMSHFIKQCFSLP

[3] = first day OGTT, 20 µmol/L protein, 25 µL/10 g injected

`CC[C@H](C)[C@H](NC(=O)[C@H](Cc1ccccc1)NC(=O)[C@H](CCC(=O)O)NC(=O)[C@H](CCCCN)NC(=O)[C@H](C)NC(=O)[C@H](C)NC(=O)[C@H](CCC(N)=O)NC(=O)CNC(=O)[C@H](CCC(=O)O)NC(=O)[C@H](CC(C)C)NC(=O)[C@H](Cc1ccc(O)cc1)NC(=O)[C@H](CO)NC(=O)[C@H](CO)NC(=O)[C@@H](NC(=O)[C@H](CC(=O)O)NC(=O)[C@H](CO)NC(=O)[C@@H](NC(=O)[C@H](Cc1ccccc1)NC(=O)[C@@H](NC(=O)CNC(=O)[C@H](CCC(=O)O)NC(=O)[C@H](C)NC(=O)[C@@H](N)Cc1c[nH]cn1)[C@@H](C)O)[C@@H](C)O)C(C)C)C(=O)N[C@@H](C)C(=O)N[C@@H](Cc1c[nH]c2ccccc12)C(=O)N[C@@H](CC(C)C)C(=O)N[C@H](C(=O)N[C@@H](CCCCN)C(=O)NCC(=O)N[C@@H](CCCNC(=N)N)C(N)=O)C(C)C` [GLP-1, Glucagon-like peptide-1] was tested, and the “AUC of Day 1, Blood glucose level (120 min)” value ([1]; first day OGTT in IGT mice, 0-120 min, vehicle 60.54, NGT 40.57) was 47.54, the “Blood Glucose Value of 30 min” value [1, 3] was 18.2 ± 1.9 mmol/L and the “Blood Glucose Value of 60 min” value [1, 3] was 13.6 ± 1.7 mmol/L. For the same compound, the “Blood Glucose Value of 90 min” value [1, 3] was 9.3 ± 2.3 mmol/L, the “Blood Glucose Value of 120 min” value [1, 3] was 7.9 ± 1.3 mmol/L and the “Fasting Blood Glucose Level” value ([1]; first day, IGT mice (STZ, male KM), fasted 9 h, one hour after last administration, 20 µmol/L protein, 25 µL/10 g injected) was 4.9 ± 0.7 mmol/L. The “Fasting Blood Glucose Level” value ([1]; second day (no new dose), IGT mice fasted 9 h) was 5.9 ± 1.1 mmol/L, the “Blood Glucose Value of 30 min” value ([1]; second day OGTT) was 25.1 ± 4.1 mmol/L and the “Blood Glucose Value of 60 min” value ([1]; second day OGTT) was 18.2 ± 3.4 mmol/L. For the same compound, the “Blood Glucose Value of 90 min” value ([1]; second day OGTT) was 11.6 ± 1.9 mmol/L and the “Blood Glucose Value of 120 min” value ([1]; second day OGTT) was 9.2 ± 1.3 mmol/L.
“G1 (GLP-1 receptor agonist: GLP-1 Val33Cys, linker GCGGGGGG, antiparallel β lamellar domain of superoxide dismutase at the C-terminus) (designed binder)” gave an Area Under Curve of the residual percentage (ELISA) during digestion with excess DPP-4, up to 24 h, 30 °C, PBS pH 7.4 [2] of 5.14.
Compound “G2 (GLP-1 receptor agonist: antiparallel β lamellar domain of superoxide dismutase at the amino terminus of GLP-1) (designed binder)” has an Area Under Curve of the residual percentage (ELISA) during digestion with excess DPP-4, up to 24 h, 30 °C, PBS pH 7.4 [2] of 1.34.
“G4 (GLP-1 receptor agonist: GLP-1 Ser18Cys with the antiparallel β lamellar domain of superoxide dismutase at the C-terminus, without the linker) (designed binder)” gave an Area Under Curve of the residual percentage (ELISA) during digestion with excess DPP-4, up to 24 h, 30 °C, PBS pH 7.4 [2] of 2.47.
In the case of human GLP-1 (glucagon-like peptide-1), the Area Under Curve of the residual percentage (ELISA) during digestion with excess DPP-4, up to 24 h, 30 °C, PBS pH 7.4 [2] is reported as 1.02.
